Test system: G proteins on NCI-H716 cells
Experiment: Radiometric [35S]GTPγS binding assay with NCI-H716 cell membranes
Format: biochemical, human
Settings: for GTPγS binding to G proteins as compared to non-specific binding (NSB): NCI-H716 cell membrane fractions, 10 μl 50 mM compound in 50 μl assay, 2 hours at 25° C.; for effect of added transducin on the level of GTPγS binding to G proteins: transducin 4 μg/50 μl assay added together with compound (FIG. 4C, 5C)
Experimental: [^35S] GTPγS binding assays were performed in triplicate in 96-well plates [see Northup et al., J. Biol. Chem., 257, 11416-23 (1982)]. To each well the following was added and allowed to incubate for 2 hours at 25° C.: […] of a 2× buffer (5 mM HEPES pH 7.8, 1 μM GTPγS, 4 μCi/ml [^35S]GTPγS); 10 μl 50 mM dextromethorphan or doxylamine; and 15 μl ([…]) NCI-H7-16 cell membranes or supernatant (supernatant from NCI-H716 cells spun at 900 g (S1), pellets from NCI-H716 cells spun at 900 g (P1), and pellets from NCI-H716 cells spun at 100,000 g (P2)). Where indicated, transducin was also added (4 μg/50 μl assay). The total assay volume per well was 50 μl.
To separate the free [^35S] GTPγS from the [^35S] GTPγS that bound to G proteins, 40 μl of the mixture was filtered using a pre-wet Millipore Multiscreen Filtration opaque 96-well plate (0.45 μm mixed cellulose acetate, #MHABN4550). The samples were washed three times with 0.2 ml ice-cold wash buffer (0.5 M Tris-HCl, 0.04 M-magnesium chloride 6H20, 1 M sodium chloride) using a Whatman Polyfiltronics manifold under pressure from a Gast vacuum pump (#DOA-P104 AA) set to 10 PSI. The rubber manifold of the Multiscreen plates was removed and the filters were allowed to dry under warm lights and a fan for 15 minutes.
The plates were then fitted with adapter plates (Packard #6005178) and 30 μl Microscint PS (#6013631) was added to each well. Next, the plates were heat sealed with Packard TopSeal-S sealing film (#6005161) using a Packard Micromate 496 heat sealer. Radioactivity bound to the filter plates was counted in a Packard Top Count NXT scintillation counter.

Row | SMILES | amount of compound needed to saturate NCI-H716 cell membranes in GTPγS binding (2 μg of NCI-H716 cell membranes (FIG. 6B)) [mM] | GTPγS binding to G proteins in the absence of transducin (NCI-H716 cell fractions, no transducin added (FIG. 4A)) | GTPγS binding to G proteins as compared to non-specific binding (NSB) | effect of added transducin on the level of GTPγS binding to G proteins
1 | COc1ccc2c(c1)[C@]13CCCC[C@@H]1[C@H](C2)N(C)CC3 [dextromethorphan] | 10 | increased the binding to G proteins | increase this binding | little effect
2 | CN(C)CCOC(C)(c1ccccc1)c1ccccn1 (stereo not drawn) [doxylamine] |  |  | increase this binding | significantly increased the binding to G proteins

Source: patent US20050244810A1, “Taste signaling in gastrointestinal cells” (priority 2003, published 2005)
